Reference: PubChem BioAssay (NCI)
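Briefly, cells in 96-well plates were exposed to five compound concentrations for 48 h, and endpoints were estimated by linear interpolation. At the GI50, growth is halved. TGI denotes the concentration required for complete inhibition of growth.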

Tests used:
Test in all cases: DTP human tumour cell line panel, 48 h
NCI-H23 lung = tested on: NCI-H23 lung
M19-MEL melanoma = tested on: M19-MEL melanoma
IGROV1 ovarian = tested on: IGROV1 ovarian
UO-31 renal = tested on: UO-31 renal
OVCAR-8 ovarian = tested on: OVCAR-8 ovarian
RXF-631 renal = tested on: RXF-631 renal
HOP-62 NSCLC = tested on: HOP-62 NSCLC
A498 renal = tested on: A498 renal
HCC-2998 colon = tested on: HCC-2998 colon
TK-10 renal = tested on: TK-10 renal
OVCAR-4 ovarian = tested on: OVCAR-4 ovarian
SF-539 CNS = tested on: SF-539 CNS
KM12 colon = tested on: KM12 colon
M14 melanoma = tested on: M14 melanoma
HOP-92 NSCLC = tested on: HOP-92 NSCLC
SN12C renal = tested on: SN12C renal
HOP-18 NSCLC = tested on: HOP-18 NSCLC
SNB-78 CNS = tested on: SNB-78 CNS
SNB-19 CNS = tested on: SNB-19 CNS
SF-295 CNS = tested on: SF-295 CNS
COLO 205 colon = tested on: COLO 205 colon
SK-OV-3 ovarian = tested on: SK-OV-3 ovarian
SK-MEL-28 melanoma = tested on: SK-MEL-28 melanoma
KM20L2 colon = tested on: KM20L2 colon
RXF 393 renal = tested on: RXF 393 renal
CAKI-1 renal = tested on: CAKI-1 renal
EKVX NSCLC = tested on: EKVX NSCLC
K-562 leukemia = tested on: K-562 leukemia
DMS 114 small cell lung = tested on: DMS 114 small cell lung
SNB-75 CNS = tested on: SNB-75 CNS
OVCAR-3 ovarian = tested on: OVCAR-3 ovarian
XF 498 CNS = tested on: XF 498 CNS
786-0 renal = tested on: 786-0 renal
DLD-1 colon = tested on: DLD-1 colon
CCRF-CEM leukemia = tested on: CCRF-CEM leukemia
HCT-15 colon = tested on: HCT-15 colon
NCI-H226 lung = tested on: NCI-H226 lung
UACC-257 melanoma = tested on: UACC-257 melanoma
MOLT-4 leukemia = tested on: MOLT-4 leukemia
A549 NSCLC = tested on: A549 NSCLC
HL-60(TB) leukemia = tested on: HL-60(TB) leukemia
OVCAR-5 ovarian = tested on: OVCAR-5 ovarian
SW-620 colon = tested on: SW-620 colon
SK-MEL-2 melanoma = tested on: SK-MEL-2 melanoma
LXFL 529 NSCLC = tested on: LXFL 529 NSCLC
SK-MEL-5 melanoma = tested on: SK-MEL-5 melanoma
UACC-62 melanoma = tested on: UACC-62 melanoma
MCF7 breast = tested on: MCF7 breast
SR leukemia = tested on: SR leukemia
T-47D breast = tested on: T-47D breast
U251 CNS = tested on: U251 CNS
SF-268 CNS = tested on: SF-268 CNS
BT-549 breast = tested on: BT-549 breast
DMS 273 small cell lung = tested on: DMS 273 small cell lung
HCT-116 colon = tested on: HCT-116 colon
ACHN renal = tested on: ACHN renal
LOX IMVI melanoma = tested on: LOX IMVI melanoma
NCI-H460 lung = tested on: NCI-H460 lung
HS 578T breast = tested on: HS 578T breast
HT29 colon = tested on: HT29 colon
PC-3 prostate = tested on: PC-3 prostate
MDA-MB-435 = tested on: MDA-MB-435
MALME-3M melanoma = tested on: MALME-3M melanoma
MDA-N = tested on: MDA-N
RPMI-8226 leukemia = tested on: RPMI-8226 leukemia
DU-145 prostate = tested on: DU-145 prostate

O=C1OC(c2cccc(C(F)(F)F)c2)c2ccc3ccccc3c21 (centres undefined)
TGI (NCI-H23 lung): > 100 µM
GI50 (M19-MEL melanoma): > 100 µM
TGI (M19-MEL melanoma): > 100 µM
GI50 (IGROV1 ovarian): > 100 µM
TGI (IGROV1 ovarian): > 100 µM
TGI (UO-31 renal): > 100 µM
GI50 (OVCAR-8 ovarian): > 100 µM
TGI (OVCAR-8 ovarian): > 100 µM
GI50 (RXF-631 renal): > 100 µM
TGI (RXF-631 renal): > 100 µM
GI50 (HOP-62 NSCLC): > 100 µM
TGI (HOP-62 NSCLC): > 100 µM
GI50 (A498 renal): > 100 µM
TGI (A498 renal): > 100 µM
GI50 (HCC-2998 colon): > 100 µM
TGI (HCC-2998 colon): > 100 µM
GI50 (TK-10 renal): > 100 µM
TGI (TK-10 renal): > 100 µM
GI50 (OVCAR-4 ovarian): > 100 µM
TGI (OVCAR-4 ovarian): > 100 µM
TGI (SF-539 CNS): > 100 µM
GI50 (KM12 colon): > 100 µM
TGI (KM12 colon): > 100 µM
GI50 (M14 melanoma): > 100 µM
TGI (M14 melanoma): > 100 µM
TGI (HOP-92 NSCLC): > 100 µM
GI50 (SN12C renal): > 100 µM
TGI (SN12C renal): > 100 µM
GI50 (HOP-18 NSCLC): > 100 µM
TGI (HOP-18 NSCLC): > 100 µM
TGI (SNB-78 CNS): > 100 µM
GI50 (SNB-19 CNS): > 100 µM
TGI (SNB-19 CNS): > 100 µM
TGI (SF-295 CNS): > 100 µM
GI50 (COLO 205 colon): > 100 µM
TGI (COLO 205 colon): > 100 µM
GI50 (SK-OV-3 ovarian): > 100 µM
TGI (SK-OV-3 ovarian): > 100 µM
GI50 (SK-MEL-28 melanoma): > 100 µM
TGI (SK-MEL-28 melanoma): > 100 µM
GI50 (KM20L2 colon): > 100 µM
TGI (KM20L2 colon): > 100 µM
TGI (RXF 393 renal): > 100 µM
GI50 (CAKI-1 renal): > 100 µM
TGI (CAKI-1 renal): > 100 µM
GI50 (EKVX NSCLC): > 100 µM
TGI (EKVX NSCLC): > 100 µM
GI50 (K-562 leukemia): 25 µM
TGI (K-562 leukemia): > 100 µM
TGI (DMS 114 small cell lung): > 100 µM
TGI (SNB-75 CNS): > 100 µM
GI50 (OVCAR-3 ovarian): > 100 µM
TGI (OVCAR-3 ovarian): > 100 µM
TGI (XF 498 CNS): > 100 µM
GI50 (786-0 renal): > 100 µM
TGI (786-0 renal): > 100 µM
TGI (DLD-1 colon): > 100 µM
GI50 (CCRF-CEM leukemia): 5.19 µM
TGI (CCRF-CEM leukemia): > 100 µM
GI50 (HCT-15 colon): 6.21 µM
TGI (HCT-15 colon): > 100 µM
GI50 (NCI-H226 lung): > 100 µM
TGI (NCI-H226 lung): > 100 µM
GI50 (UACC-257 melanoma): 8.64 µM
TGI (UACC-257 melanoma): > 100 µM
GI50 (MOLT-4 leukemia): 4.99 µM
TGI (MOLT-4 leukemia): > 100 µM
TGI (A549 NSCLC): > 100 µM
TGI (HL-60(TB) leukemia): > 100 µM
GI50 (OVCAR-5 ovarian): > 100 µM
TGI (OVCAR-5 ovarian): > 100 µM
GI50 (SW-620 colon): > 100 µM
TGI (SW-620 colon): > 100 µM
GI50 (SK-MEL-2 melanoma): > 100 µM
TGI (SK-MEL-2 melanoma): > 100 µM
TGI (LXFL 529 NSCLC): > 100 µM

C=C(CN(C)C)C(=O)c1ccc(OC2OC(COC(C)=O)C(OC(C)=O)C(OC(C)=O)C2OC(C)=O)cc1 (centres undefined)
TGI (NCI-H23 lung): 43.3 µM
TGI (IGROV1 ovarian): 36.1 µM
TGI (UO-31 renal): 6.73 µM
TGI (OVCAR-8 ovarian): 19.2 µM
TGI (RXF-631 renal): 29.3 µM
TGI (HOP-62 NSCLC): 24.3 µM
TGI (SK-MEL-5 melanoma): 20.3 µM
TGI (UACC-62 melanoma): 22.4 µM
TGI (A498 renal): 21 µM
TGI (HCC-2998 colon): 36.8 µM
TGI (MCF7 breast): 5.51 µM
TGI (SR leukemia): 4.94 µM
TGI (T-47D breast): 15.7 µM
TGI (U251 CNS): 46.2 µM
TGI (TK-10 renal): 7.06 µM
TGI (SF-268 CNS): 62 µM
TGI (OVCAR-4 ovarian): > 29.2 µM
TGI (SF-539 CNS): 30.6 µM
TGI (KM12 colon): 41.6 µM
TGI (M14 melanoma): 11.2 µM
TGI (BT-549 breast): 10.8 µM
TGI (SN12C renal): 26.2 µM
TGI (HOP-18 NSCLC): 9.82 µM
TGI (SNB-78 CNS): 50.8 µM
TGI (DMS 273 small cell lung): > 51.7 µM
TGI (HCT-116 colon): 6.12 µM
TGI (SNB-19 CNS): 39.4 µM
TGI (SF-295 CNS): 36 µM
TGI (COLO 205 colon): 3.17 µM
TGI (ACHN renal): 3.21 µM
TGI (SK-OV-3 ovarian): 35.5 µM
TGI (SK-MEL-28 melanoma): 9.22 µM
TGI (LOX IMVI melanoma): 8.49 µM
TGI (KM20L2 colon): 40.8 µM
TGI (RXF 393 renal): 3.69 µM
TGI (CAKI-1 renal): 9.54 µM
TGI (EKVX NSCLC): 54.2 µM
TGI (NCI-H460 lung): 40.8 µM
TGI (K-562 leukemia): 0.474 µM
TGI (DMS 114 small cell lung): 14.6 µM
TGI (HS 578T breast): > 83.7 µM
TGI (SNB-75 CNS): 38.5 µM
TGI (HT29 colon): 12.2 µM
TGI (OVCAR-3 ovarian): 14.5 µM
TGI (XF 498 CNS): 9.77 µM
TGI (786-0 renal): 3.82 µM
TGI (PC-3 prostate): 32 µM
TGI (MDA-MB-435): 14.2 µM
TGI (DLD-1 colon): 3.83 µM
TGI (CCRF-CEM leukemia): 0.342 µM
TGI (HCT-15 colon): 11.3 µM
TGI (NCI-H226 lung): 19.8 µM
TGI (UACC-257 melanoma): 5.94 µM
TGI (MALME-3M melanoma): 7.51 µM
TGI (A549 NSCLC): 45.2 µM
TGI (HL-60(TB) leukemia): > 100 µM
TGI (OVCAR-5 ovarian): 37.4 µM
TGI (MDA-N): 11.1 µM
TGI (SW-620 colon): 3.17 µM
TGI (SK-MEL-2 melanoma): 33.3 µM
TGI (RPMI-8226 leukemia): > 100 µM
TGI (DU-145 prostate): 31.3 µM
TGI (LXFL 529 NSCLC): 2.9 µM
